Data taken from ChEMBL document CHEMBL5696442, “Discovery of type II inhibitors of TGFβ-activated kinase 1 (TAK1) and mitogen-activated protein kinase kinase kinase kinase 2 (MAP4K2)” (J Med Chem, 2015).
Active and inactive are the calls of the source. The rule behind the calls is not given here.

Legend:
[1] = molecular target: Serine/threonine-protein kinase 38 (Homo sapiens) (UniProt Q15208); test: Inhibition of NDR1 ACT labeling site in human A-375 cells at 5 uM by KiNativ Profiling analysis relative to control; type: cell-based
[2] = molecular target: Cyclin-dependent kinase 7 (Homo sapiens) (UniProt P50613); test: Inhibition of CDK7 Lys2 labeling site in human A-375 cells at 0.05 uM by KiNativ Profiling analysis relative to control; type: cell-based
Sequence of Cyclin-dependent kinase 7 (Homo sapiens) (P50613 whole entry): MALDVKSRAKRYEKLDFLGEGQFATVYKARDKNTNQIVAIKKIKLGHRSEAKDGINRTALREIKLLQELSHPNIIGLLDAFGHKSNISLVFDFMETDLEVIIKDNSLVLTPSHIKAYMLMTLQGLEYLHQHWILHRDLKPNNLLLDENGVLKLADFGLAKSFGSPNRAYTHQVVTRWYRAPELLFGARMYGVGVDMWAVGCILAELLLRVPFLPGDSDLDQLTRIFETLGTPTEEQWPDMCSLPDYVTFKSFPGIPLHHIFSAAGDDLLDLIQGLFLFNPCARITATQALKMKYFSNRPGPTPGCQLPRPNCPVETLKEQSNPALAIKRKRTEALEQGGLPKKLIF

[3] = molecular target: T1, Mitogen-activated protein kinase kinase kinase 2 (Homo sapiens) (UniProt Q9Y2U5); test: Inhibition of MAP3K2 (unknown origin) at 1 uM by Ambit Kinomescan binding assay relative to control; values are per cent of control
T1 sequence (whole entry): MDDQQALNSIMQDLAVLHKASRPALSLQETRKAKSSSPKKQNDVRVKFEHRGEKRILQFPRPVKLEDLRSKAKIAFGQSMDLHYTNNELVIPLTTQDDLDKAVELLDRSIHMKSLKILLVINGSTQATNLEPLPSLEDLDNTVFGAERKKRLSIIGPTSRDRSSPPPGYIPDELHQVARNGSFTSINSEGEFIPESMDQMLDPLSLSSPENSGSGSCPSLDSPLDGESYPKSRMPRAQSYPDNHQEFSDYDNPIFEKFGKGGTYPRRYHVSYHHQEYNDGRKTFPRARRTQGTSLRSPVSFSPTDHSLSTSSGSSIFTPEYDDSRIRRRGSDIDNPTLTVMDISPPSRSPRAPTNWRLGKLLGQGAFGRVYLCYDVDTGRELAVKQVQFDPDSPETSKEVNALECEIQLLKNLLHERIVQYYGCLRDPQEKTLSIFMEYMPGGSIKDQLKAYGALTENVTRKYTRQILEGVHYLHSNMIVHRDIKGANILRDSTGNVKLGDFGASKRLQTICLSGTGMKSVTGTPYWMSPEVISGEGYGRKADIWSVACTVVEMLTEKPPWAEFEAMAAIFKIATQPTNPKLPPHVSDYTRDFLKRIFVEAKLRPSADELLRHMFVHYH

[4] = molecular target: Mitogen-activated protein kinase kinase kinase 4 (Homo sapiens) (UniProt Q9Y6R4); test: Inhibition of MAP3K4 Lys2 labeling site in human A-375 cells at 5 uM by KiNativ Profiling analysis relative to control; type: cell-based
Sequence of Mitogen-activated protein kinase kinase kinase 4 (Homo sapiens) (Q9Y6R4 whole entry): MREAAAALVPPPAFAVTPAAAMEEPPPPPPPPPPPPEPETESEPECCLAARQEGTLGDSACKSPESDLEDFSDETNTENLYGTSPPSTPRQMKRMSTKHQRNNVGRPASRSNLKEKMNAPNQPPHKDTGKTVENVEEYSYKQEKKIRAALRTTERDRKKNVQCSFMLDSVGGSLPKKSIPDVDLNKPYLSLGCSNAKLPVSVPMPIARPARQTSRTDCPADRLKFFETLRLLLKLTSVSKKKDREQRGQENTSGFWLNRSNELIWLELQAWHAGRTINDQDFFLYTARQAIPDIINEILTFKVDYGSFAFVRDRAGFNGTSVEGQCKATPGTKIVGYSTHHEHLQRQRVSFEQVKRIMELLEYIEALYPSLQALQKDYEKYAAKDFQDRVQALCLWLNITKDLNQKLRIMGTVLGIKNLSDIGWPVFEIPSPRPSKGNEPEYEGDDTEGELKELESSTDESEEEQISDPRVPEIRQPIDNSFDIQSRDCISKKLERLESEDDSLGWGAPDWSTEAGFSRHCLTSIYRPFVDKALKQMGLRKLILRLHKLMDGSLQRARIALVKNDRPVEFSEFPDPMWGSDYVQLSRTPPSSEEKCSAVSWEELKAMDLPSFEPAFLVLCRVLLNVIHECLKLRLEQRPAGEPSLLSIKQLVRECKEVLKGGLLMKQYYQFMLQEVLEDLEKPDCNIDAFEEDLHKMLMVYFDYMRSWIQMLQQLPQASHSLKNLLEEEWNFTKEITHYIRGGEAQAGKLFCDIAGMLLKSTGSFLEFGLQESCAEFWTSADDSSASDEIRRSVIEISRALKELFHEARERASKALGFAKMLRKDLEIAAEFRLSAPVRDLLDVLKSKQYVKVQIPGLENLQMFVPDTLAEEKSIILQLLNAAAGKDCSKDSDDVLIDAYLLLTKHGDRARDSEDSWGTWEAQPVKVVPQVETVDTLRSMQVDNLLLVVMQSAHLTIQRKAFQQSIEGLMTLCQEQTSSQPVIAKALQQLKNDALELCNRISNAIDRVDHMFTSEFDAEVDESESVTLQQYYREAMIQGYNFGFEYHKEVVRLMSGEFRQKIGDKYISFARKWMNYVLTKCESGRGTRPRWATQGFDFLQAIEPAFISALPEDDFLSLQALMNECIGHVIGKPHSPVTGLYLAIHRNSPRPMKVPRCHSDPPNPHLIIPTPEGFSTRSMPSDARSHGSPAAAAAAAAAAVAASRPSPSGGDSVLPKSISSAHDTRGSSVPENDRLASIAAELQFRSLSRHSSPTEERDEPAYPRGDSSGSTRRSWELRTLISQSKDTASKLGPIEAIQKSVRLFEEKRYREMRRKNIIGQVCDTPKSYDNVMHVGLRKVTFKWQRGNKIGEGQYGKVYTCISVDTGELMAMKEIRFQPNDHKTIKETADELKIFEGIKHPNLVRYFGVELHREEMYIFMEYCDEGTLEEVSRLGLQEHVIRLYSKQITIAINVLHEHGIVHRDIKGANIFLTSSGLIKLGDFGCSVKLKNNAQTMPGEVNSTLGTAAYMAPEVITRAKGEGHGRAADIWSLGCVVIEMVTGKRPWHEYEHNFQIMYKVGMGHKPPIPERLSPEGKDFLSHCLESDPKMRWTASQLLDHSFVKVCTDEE

[5] = molecular target: Calcium/calmodulin-dependent protein kinase type II subunit gamma (Homo sapiens) (UniProt Q13555); test: Inhibition of CaMK2g Lys1 labeling site harbouring KTSTQEYAAKIINTKK in human A-375 cells at 0.5 uM by KiNativ Profiling analysis relative to control; type: cell-based
Sequence of Calcium/calmodulin-dependent protein kinase type II subunit gamma (Homo sapiens) (Q13555 whole entry): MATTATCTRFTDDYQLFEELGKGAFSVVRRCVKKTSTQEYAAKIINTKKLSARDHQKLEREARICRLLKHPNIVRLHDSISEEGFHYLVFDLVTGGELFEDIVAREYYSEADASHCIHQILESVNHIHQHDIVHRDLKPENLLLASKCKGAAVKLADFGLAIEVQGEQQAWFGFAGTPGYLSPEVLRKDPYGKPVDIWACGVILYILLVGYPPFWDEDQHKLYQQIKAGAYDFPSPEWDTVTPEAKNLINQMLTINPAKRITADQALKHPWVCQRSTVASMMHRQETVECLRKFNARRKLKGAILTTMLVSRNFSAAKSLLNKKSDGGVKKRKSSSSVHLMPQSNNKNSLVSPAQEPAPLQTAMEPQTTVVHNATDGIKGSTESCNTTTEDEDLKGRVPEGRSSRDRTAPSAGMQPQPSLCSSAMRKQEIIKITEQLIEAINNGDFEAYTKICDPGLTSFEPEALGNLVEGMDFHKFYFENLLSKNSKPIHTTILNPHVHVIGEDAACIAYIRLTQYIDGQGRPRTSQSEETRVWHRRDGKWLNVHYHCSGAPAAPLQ

[6] = molecular target: Serine/threonine-protein kinase 4 (Homo sapiens) (UniProt Q13043); test: Inhibition of MST1 Lys1 labeling site harbouring ETGQIVAIKQVPVESDLQEIIK in human A-375 cells at 0.5 uM by KiNativ Profiling analysis relative to control
Sequence of Serine/threonine-protein kinase 4 (Homo sapiens) (Q13043 whole entry, looked up): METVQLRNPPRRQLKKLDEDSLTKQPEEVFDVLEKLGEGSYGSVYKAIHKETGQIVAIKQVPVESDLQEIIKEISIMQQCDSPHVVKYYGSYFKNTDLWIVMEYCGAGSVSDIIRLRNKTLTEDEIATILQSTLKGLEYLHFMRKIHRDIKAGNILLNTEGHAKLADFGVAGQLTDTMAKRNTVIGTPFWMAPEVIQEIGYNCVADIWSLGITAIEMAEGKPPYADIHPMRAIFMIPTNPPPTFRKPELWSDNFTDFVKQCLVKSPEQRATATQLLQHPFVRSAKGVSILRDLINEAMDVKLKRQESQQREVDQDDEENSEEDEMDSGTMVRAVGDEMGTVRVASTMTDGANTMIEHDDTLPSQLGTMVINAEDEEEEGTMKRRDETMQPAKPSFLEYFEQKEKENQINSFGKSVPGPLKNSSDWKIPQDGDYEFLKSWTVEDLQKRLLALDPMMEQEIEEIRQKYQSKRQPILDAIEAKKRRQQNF

[7] = molecular target: Cyclin-dependent kinase-like 1 (Homo sapiens) (UniProt Q00532); test: Inhibition of CDKL1 (unknown origin) at 1 uM by Ambit Kinomescan binding assay relative to control; values are per cent of control
Sequence of Cyclin-dependent kinase-like 1 (Homo sapiens) (Q00532 whole entry): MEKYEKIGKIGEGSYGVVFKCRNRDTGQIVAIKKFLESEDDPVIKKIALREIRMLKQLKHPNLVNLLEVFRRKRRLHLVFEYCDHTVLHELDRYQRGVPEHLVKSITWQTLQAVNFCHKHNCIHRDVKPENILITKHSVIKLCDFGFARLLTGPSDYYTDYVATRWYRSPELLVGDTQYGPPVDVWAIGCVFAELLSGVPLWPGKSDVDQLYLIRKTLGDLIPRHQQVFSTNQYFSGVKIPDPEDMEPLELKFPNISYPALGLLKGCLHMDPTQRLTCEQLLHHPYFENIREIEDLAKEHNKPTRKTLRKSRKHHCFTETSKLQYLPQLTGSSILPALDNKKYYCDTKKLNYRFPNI

[8] = molecular target: T2, Serine/threonine-protein kinase TAO2 (Homo sapiens) (UniProt Q9UL54); test: Inhibition of TAO2 K2 labeling site in human Huh-7 cells at 1 uM by KiNativ Profiling analysis relative to control; type: cell-based
T2 sequence (whole entry): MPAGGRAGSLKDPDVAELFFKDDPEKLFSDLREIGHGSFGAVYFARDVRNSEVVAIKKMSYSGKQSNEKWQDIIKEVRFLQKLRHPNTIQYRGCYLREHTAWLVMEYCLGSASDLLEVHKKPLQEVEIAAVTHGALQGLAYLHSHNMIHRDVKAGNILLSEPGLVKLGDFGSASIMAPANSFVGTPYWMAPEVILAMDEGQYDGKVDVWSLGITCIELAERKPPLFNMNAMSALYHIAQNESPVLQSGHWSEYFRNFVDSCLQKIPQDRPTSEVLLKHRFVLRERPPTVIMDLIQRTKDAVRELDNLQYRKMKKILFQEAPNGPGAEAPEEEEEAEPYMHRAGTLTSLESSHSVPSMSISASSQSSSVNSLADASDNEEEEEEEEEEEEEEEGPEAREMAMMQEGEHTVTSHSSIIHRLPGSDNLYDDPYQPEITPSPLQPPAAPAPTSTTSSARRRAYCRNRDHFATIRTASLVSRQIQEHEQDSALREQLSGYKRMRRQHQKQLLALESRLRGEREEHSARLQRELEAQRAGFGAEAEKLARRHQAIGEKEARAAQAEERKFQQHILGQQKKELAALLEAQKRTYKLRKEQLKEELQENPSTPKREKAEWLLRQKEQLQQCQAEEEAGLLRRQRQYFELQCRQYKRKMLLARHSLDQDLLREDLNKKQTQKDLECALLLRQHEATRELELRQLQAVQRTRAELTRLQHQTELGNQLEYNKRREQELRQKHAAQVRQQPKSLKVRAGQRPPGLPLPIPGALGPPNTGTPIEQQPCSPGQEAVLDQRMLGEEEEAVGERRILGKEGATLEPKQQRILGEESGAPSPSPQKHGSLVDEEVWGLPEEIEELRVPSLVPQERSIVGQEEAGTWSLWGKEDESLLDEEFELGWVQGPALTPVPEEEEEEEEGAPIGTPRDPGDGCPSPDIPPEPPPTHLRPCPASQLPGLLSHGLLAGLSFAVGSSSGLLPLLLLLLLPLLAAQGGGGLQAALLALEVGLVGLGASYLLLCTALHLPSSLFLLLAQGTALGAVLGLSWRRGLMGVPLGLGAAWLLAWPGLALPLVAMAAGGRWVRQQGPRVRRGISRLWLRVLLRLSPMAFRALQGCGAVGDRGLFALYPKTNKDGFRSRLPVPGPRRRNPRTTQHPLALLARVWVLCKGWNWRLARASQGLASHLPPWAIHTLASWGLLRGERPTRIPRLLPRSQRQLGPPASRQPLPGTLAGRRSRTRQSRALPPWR

[9] = molecular target: Serine/threonine-protein kinase ULK2 (Homo sapiens) (UniProt Q8IYT8); test: Inhibition of ULK2 (unknown origin) at 10 uM by Ambit Kinomescan binding assay
Sequence of Serine/threonine-protein kinase ULK2 (Homo sapiens) (Q8IYT8 whole entry): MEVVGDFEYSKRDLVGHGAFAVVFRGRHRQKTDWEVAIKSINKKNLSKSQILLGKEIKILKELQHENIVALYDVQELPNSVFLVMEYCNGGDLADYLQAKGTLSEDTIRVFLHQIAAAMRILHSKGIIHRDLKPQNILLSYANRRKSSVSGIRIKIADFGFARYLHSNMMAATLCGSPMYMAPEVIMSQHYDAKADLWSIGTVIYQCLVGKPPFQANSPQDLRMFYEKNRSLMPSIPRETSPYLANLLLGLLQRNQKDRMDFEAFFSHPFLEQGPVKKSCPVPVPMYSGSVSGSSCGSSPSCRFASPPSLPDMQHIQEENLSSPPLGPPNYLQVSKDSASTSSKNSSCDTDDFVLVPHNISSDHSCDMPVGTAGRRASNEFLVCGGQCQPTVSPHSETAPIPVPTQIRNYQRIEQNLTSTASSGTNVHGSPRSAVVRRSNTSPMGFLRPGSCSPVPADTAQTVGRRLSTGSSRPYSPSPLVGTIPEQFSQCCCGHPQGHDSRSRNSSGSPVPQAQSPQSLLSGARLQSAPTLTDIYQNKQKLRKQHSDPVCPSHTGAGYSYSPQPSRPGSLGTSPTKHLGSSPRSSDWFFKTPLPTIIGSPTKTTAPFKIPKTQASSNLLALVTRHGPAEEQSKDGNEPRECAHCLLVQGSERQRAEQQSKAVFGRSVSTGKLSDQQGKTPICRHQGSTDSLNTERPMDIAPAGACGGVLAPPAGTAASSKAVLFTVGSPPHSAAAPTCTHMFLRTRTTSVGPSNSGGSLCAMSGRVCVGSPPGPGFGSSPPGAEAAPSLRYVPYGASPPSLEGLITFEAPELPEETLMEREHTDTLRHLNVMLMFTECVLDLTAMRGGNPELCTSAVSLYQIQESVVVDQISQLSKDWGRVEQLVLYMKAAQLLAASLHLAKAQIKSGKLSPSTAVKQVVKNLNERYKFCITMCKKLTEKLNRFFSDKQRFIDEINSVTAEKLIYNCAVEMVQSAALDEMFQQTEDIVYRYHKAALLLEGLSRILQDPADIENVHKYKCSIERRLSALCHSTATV

[10] = molecular target: Tyrosine-protein kinase Tec (Homo sapiens) (UniProt P42680); test: Inhibition of TEC (unknown origin) at 10 uM by Ambit Kinomescan binding assay
Sequence of Tyrosine-protein kinase Tec (Homo sapiens) (P42680 whole entry, looked up): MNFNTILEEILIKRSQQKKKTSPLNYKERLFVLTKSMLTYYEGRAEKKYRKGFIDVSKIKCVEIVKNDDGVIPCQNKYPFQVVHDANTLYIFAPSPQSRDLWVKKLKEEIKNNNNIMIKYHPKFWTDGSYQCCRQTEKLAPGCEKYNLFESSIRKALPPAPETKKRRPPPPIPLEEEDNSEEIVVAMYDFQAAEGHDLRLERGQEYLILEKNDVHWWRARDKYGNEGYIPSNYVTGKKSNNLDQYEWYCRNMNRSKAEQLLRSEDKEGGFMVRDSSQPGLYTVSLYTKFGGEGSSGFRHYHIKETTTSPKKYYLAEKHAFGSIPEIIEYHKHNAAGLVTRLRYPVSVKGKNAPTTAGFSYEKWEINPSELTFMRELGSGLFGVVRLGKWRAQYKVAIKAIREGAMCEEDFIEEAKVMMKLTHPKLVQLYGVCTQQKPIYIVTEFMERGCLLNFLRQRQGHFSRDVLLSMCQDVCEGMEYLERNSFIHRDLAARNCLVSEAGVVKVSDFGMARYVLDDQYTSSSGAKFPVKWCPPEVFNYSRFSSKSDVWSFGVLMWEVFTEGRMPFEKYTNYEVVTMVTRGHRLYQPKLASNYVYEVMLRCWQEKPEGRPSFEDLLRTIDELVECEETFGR

[11] = molecular target: Serine/threonine-protein kinase Chk2 (Homo sapiens) (UniProt O96017); test: Inhibition of CHK2 K2 labeling site in human Huh-7 cells at 1 uM by KiNativ Profiling analysis relative to control; type: cell-based
[12] = molecular target: Serine/threonine-protein kinase MARK2 (Homo sapiens) (UniProt Q7KZI7); test: Inhibition of MARK2 Lys1 labeling site harbouring EVAVKIIDKTQLNSSSLQK in human Huh-7 cell lysate at 1 uM by KiNativ Profiling analysis relative to control; type: subcellular

## CCN1CCN(Cc2ccc(NC(=O)c3ccc(C)c(/C=C/c4cnc5[nH]ccc5c4OC)c3)cc2C(F)(F)F)CC1
[1]
  inhibition: -2.6%
[2]
  inhibition: 32.7%
[3]
  residual activity: 23%
[4]
  inhibition: 14.2%
[5]
  inhibition: 13%
[6]
  inhibition: 17.4%
[7]
  residual activity: 100%

## CCN1CCN(Cc2ccc(NC(=O)c3ccc(C)c(Oc4ccnc5[nH]ccc45)c3)cc2C(F)(F)F)CC1
[8]
  inhibition: 4.7%
[9]
  inhibition: inactive
[10]
  inhibition: inactive
[11]
  inhibition: 17.5%

## CNc1cc(Oc2cc(C(=O)Nc3cc(N4CCN(C)CC4)cc(C(F)(F)F)c3)ccc2C)ncn1
[12]
  inhibition: 7.4%
